Laboratory results as given in patent US20130165475A1, “DEUTERIUM-ENRICHED HETEROCYCLIC COMPOUNDS AS KINASE INHIBITORS” (ASCEPION PHARMACEUTICALS, INC., priority 2010, published 2013).
Where a name gives a salt, the structure may show the parent alone.

Experiments:
[1] = molecular target: T1, VEGFR2 (Homo sapiens, UniProt P35968); test: VEGFR2 cell-based assay (ELISA, phosphor-/total VEGFR2 in transfected CHO cells); details: compound at 100 nM; CHO cells transfected with full length VEGFR2; FBS stimulation; read-out: % VEGFR2 kinase activity remains
T1 construct: expressed in transfected cells; host or cells: CHO cells
T1 sequence (P35968 20-1356): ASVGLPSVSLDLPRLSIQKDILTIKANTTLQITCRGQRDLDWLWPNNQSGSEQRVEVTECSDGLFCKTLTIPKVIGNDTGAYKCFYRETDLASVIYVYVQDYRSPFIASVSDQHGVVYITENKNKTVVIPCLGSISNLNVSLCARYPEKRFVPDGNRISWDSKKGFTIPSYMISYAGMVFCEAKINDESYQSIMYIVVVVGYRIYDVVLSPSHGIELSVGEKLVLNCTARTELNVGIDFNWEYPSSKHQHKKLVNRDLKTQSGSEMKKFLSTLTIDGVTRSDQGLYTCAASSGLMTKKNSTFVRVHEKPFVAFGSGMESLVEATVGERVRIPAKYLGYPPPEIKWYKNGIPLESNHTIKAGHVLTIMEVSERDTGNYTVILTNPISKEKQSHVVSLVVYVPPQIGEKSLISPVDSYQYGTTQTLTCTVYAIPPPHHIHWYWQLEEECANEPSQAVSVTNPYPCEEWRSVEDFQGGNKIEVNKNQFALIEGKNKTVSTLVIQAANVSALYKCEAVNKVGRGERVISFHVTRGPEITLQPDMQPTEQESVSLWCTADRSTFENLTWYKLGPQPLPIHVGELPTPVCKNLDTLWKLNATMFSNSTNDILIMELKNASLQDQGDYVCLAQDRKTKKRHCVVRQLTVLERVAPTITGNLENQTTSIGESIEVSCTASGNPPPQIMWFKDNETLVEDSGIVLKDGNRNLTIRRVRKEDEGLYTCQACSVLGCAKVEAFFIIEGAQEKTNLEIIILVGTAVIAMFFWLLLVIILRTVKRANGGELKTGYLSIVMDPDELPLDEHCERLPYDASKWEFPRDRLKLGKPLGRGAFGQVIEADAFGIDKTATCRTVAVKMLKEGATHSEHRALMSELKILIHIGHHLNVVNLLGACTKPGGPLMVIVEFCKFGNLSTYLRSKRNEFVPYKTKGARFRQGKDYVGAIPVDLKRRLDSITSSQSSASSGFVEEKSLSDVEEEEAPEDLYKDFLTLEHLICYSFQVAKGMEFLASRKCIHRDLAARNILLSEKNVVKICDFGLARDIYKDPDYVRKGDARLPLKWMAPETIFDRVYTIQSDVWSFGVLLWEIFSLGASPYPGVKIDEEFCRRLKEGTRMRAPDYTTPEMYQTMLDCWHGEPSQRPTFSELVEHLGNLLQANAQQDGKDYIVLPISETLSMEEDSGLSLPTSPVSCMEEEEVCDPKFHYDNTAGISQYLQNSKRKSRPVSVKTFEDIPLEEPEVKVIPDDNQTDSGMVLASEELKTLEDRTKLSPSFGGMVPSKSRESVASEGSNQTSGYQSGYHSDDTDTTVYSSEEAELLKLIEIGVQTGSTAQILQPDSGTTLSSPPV
From the text: A standard cell-based assay for VEGFR2 kinase activity can be used to test or screen the compounds of this invention and to identify VEGFR2 antagonists. In this example, ELISA kits (R&D Systems, Inc., Minneapolis, Minn. 55413, USA) were used.
(§1) The activity of VEGFR2 in cells depended on its autophosphorylation level by various factors including growth factors. In order to induce the cell to produce VEGFR2, full length of VEGFR2 sequence was cloned into PC-DNA3.1 vector, the plasmid was then transfected into CHO cells. After 48 hours, the expression of VEGFR2 in transfected CHO cells was confirmed by regular western blotting.
A compound to be tested was first dissolved in DMSO to a concentration of 10 mM and stored at −20° C. One day before the test, CHO cells transfected with full length VEGFR2 plasmid were grown in Dulbecco's Modified Eagle Medium (DMEM) without the presence of serum. On the day of the test, the compounds with various concentrations in DMSO (from 0.5 nM to 500 nM) were added into DMEM. Two hours later, 20% of FBS (Fetal Bovine Serum) was added into the medium to stimulate the production of phosphor-VEGFR2. Cell lysate from approximately 5×10^5 transfected CHO cells were reacted with anti-phosphor VEGFR2 or anti-total VEGFR2 antibody in 96-well plates, in the presence of detection antibody. The phosphor-VEGFR2 or total VEGFR2 were detected with Streptavidin-HRP(R&D Systems), followed by chemiluminescent detection. The level of VEGFR2 kinase activity was quantified as the ratio between the amount of phosphor- and that of total VEGFR2 proteins.

[2] = molecular target: T2, c-Met (Homo sapiens, UniProt P08581); test: c-Met cell-based assay (ELISA, phosphor-/total c-Met in transfected CHO cells, HGF stimulated); details: compound at 100 nM; CHO cells transfected with full length c-Met; HGF 100 ng/mL
T2 construct: expressed in transfected cells; host or cells: CHO cells
T2 sequence (P08581 25-1390): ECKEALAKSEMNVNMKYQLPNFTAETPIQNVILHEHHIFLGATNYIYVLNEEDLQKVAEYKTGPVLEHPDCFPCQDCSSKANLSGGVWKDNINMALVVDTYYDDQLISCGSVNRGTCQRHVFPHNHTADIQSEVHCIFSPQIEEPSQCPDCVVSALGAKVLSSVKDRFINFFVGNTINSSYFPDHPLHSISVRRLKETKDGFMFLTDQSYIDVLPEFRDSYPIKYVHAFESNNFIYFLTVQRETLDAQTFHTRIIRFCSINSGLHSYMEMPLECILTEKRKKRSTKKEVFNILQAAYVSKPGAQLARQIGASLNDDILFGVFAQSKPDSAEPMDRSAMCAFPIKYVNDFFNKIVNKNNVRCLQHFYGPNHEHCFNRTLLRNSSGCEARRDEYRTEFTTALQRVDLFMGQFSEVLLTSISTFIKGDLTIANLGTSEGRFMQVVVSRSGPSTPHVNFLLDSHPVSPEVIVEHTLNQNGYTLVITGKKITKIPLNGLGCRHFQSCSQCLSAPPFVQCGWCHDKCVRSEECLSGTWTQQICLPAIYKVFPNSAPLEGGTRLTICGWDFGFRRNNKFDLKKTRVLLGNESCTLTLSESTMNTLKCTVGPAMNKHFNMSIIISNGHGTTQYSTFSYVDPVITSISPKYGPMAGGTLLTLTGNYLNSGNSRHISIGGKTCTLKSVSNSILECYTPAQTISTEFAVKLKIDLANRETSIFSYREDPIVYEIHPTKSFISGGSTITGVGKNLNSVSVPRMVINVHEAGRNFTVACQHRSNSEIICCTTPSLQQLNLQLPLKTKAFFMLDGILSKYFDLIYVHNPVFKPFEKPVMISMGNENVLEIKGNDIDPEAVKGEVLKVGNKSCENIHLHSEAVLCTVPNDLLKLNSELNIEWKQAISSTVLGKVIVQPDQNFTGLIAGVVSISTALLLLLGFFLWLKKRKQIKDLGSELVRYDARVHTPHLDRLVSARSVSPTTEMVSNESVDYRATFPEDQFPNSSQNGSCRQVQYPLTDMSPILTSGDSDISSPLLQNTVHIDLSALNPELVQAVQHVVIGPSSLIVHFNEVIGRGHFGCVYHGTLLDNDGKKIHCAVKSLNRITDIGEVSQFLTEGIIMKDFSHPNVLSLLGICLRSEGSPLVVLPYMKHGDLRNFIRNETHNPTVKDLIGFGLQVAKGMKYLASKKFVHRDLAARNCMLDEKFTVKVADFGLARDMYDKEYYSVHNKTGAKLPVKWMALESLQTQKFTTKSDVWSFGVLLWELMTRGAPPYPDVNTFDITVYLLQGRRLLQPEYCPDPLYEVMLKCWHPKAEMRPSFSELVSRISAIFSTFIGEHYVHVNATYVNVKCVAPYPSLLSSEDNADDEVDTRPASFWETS
From the text: A standard cell-based assay for c-Met kinase activity can be used to test or screen the compounds of this invention and to identify c-Met antagonists. In this example, ELISA kits (R&D Systems, Inc., Minneapolis, Minn. 55413, USA) were used.
as §1, with “c-Met” for “VEGFR2”, “it specific” for “various factors including”, “factor-Hepatocyte growth factor (HGF).” for “factors.”, “c-Met,” for “VEGFR2,”
A compound to be tested was first dissolved in DMSO to a concentration of 10 mM and stored at −20° C. One day before the screening, CHO cells transfected with full length c-Met plasmid were grown in DMEM medium without the presence of serum. On the day of screening procedure, the compounds with various concentration in DMSO (from 0.5 nM to 500 nM) were added into DMEM medium, two hours later, Hepatocyte growth factor (HGF) was added into the medium at the concentration of 100 ng/mL to stimulate the production of phosphor-c-Met. Cell lysate from approximately 5×10^5 transfected CHO cells were reacted with anti-phosphor c-Met or anti-total c-Met antibody in 96 well plates, in the presence of detection antibody. The phosphor-c-Met or total c-Met were detected with Streptavidin-HRP (R&D Systems), followed by chemiluminescent detection. The level of c-Met kinase activity was quantified as the ratio between the amount of phosphor- and that of total c-Met proteins.

[3] = tested on: Mouse liver microsome; test: Liver microsomal stability assay, mouse; type: in vitro ADME; parameters: key: A: the percentage of a compound remains is greater than that of its deuterium non-enriched counterpart; B: a result otherwise; details: 40 μM, 37° C., 30 min, 1 mg/ml microsome proteins; class relative to deuterium non-enriched counterpart
Description: A standard liver microsomal stability assay can be used to test or screen the compounds of this invention and to identify compounds with enhanced metabolic stability due to the enrichment of deuterium in the compounds. Liver microsome proteins prepared from different species such as mouse and rat were obtained from a commercial source (Research Institute for Liver Diseases, Shanghai, China). The assay was conducted in 1.5% potassium hydrogenphosphate (K2HPO4) in the presence of liver microsome proteins at 1 mg/ml and supplemented with an […] (3.3 mM NADPH, 3.3 mM glucose-6-phosphate, 6 units/ml G6PDase, and 3.3 mM magnesium chloride). Test compound was added into the assay mixture to a final concentration of 40 μM and incubated at 37° C. for 0 or 30 minutes. The reaction was stopped by the addition of 20 μM Bifonazole/CAN. Samples were then centrifuged at 14000 rpm for 10 minutes to precipitate proteins. Supernatant were then transferred to microcentrifuge tubes and subject to reverse phase HPLC analysis to determine the concentration of test compound.
The percentage of compounds that remained in the assay reactions after a thirty-minute incubation at 37° C. is calculated as the ratio between the amount of compound remained after a thirty-minute and that after a zero-minute incubation.

[4] = tested on: MKN-45 human gastric cancer cells; test: In vivo anti-tumor efficacy, MKN-45 xenograft; details: MKN-45 s.c. in nu/nu Balb/c athymic mice, 50 mg/kg once per day oral gavage
Description: Female (nu/nu) Balb/c athymic mice at 4-6 weeks of age were injected subcutaneously (s.c.) with MDA-MB-231 human breast cancer cells, A549 human non-small cell lung cancer cells, BEL7401 human liver cancer cells, HT-29 human colon cancer cells, or MKN-45 human gastric cancer cells (ATCC, 5×10^6 cells suspended in 100 μl DMEM medium). Treatment was initiated after the tumor mass grown from subcutaneous implanted tumor cells reaches a median volume of 200-400 mm^3. Mice were randomized into groups with three in each group such that the median tumor volume is nearly equal among all groups. […] Tumor volumes were assessed at least twice weekly by caliper measurement from the start of treatment. Tumor volume was calculated using the formula ½×L×W^2 (L: length of tumor's long axis, W: length of tumor's short axis). […] The efficacy of compounds in reducing tumor growth was assessed by the index Tumor Growth Inhibition (TGI). TGI for a given treatment period was calculated using the group mean tumor volumes according to the formula: TGI=100×(Vvehicle—group−VTreatment—group)÷VVehicle—group wherein VVehicle—group representing the mean tumor volume for the group treated with vehicle and VTreatment—group representing the mean tumor volume of the group treated with a compound.

In the case of `Cl.[2H]C([2H])(c1ccnc(N)c1)n1ccc2c(NC(=O)Nc3cc(Cl)ccc3OC)cccc21` [Example 2, 1-[1-[(2-amino-4-pyridyl)-dideuteriomethyl]indol-4-yl]-3-(5-chloro-2-methoxyphenyl)urea hydrochloride], the remaining activity at 0.1 µM [1] is reported as less than 70%, the “% C-Met kinase activity remains” value [2] is reported as “B (the percentage is greater or equal to 70%)” and the “% of compound remained at the 30th minutes, Mouse liver microsome” value (“% of compound remained” below) [3] is reported as “A”. The “Tumor Growth Inhibition (TGI)” value [4] was “A (the TGI is greater or equal to 50%)”.
With `[2H]C([2H])(c1ccnc(N)c1)N1CCc2c(NC(=O)Nc3cc(Cl)ccc3OC)cccc21` [Example 1, 1-[1-[(2-Amino-4-pyridyl)-dideuteriomethyl]indolin-4-yl]-3-(5-chloro-2-methoxyphenyl)urea] the remaining activity at 0.1 µM [1] was less than 70%, the “% C-Met kinase activity remains” value [2] was “B (the percentage is greater or equal to 70%)” and the “% of compound remained” value [3] was “A”.
With `[2H]C([2H])(c1ccnc2[nH]ccc12)N1CCc2c(NC(=O)Nc3cccc(C)c3)cccc21` [Example 13, 1-[1-[Dideuterio(1H-pyrrolo[2,3-b]pyridin-4-yl)methyl]indolin-4-yl]-3-(m-tolyl)urea hydrochloride] the remaining activity at 0.1 µM [1] was less than 70%, the “% C-Met kinase activity remains” value [2] was “A (the percentage of kinase activity remains is below 70%)” and the “% of compound remained” value [3] was “A”.
In the case of `[2H]C([2H])(c1ccnc2[nH]ccc12)n1ccc2c(NC(=O)Nc3cc(Cl)ccc3OC)cccc21` [Example 10, 1-(5-chloro-2-methoxyphenyl)-3-[1-[dideuterio(1H-pyrrolo[2,3-b]pyridin-4-yl)methyl]indol-4-yl]urea hydrochloride], the remaining activity at 0.1 µM [1] is reported as less than 70%, the “% C-Met kinase activity remains” value [2] is reported as “A (the percentage of kinase activity remains is below 70%)” and the “% of compound remained” value [3] is reported as “A”.
In the case of `[2H]C(c1c[nH]c2ncccc12)N1CCc2c(NC(=O)Nc3cc(Cl)ccc3F)cccc21` (stereo not shown) [Example 19, 1-(5-Chloro-2-fluorophenyl)-3-[1-[deuterio(1H-pyrrolo[2,3-b]pyridin-3-yl)methyl]indolin-4-yl]urea], the remaining activity at 0.1 µM [1] is reported as less than 70%, the “% C-Met kinase activity remains” value [2] is reported as “B (the percentage is greater or equal to 70%)” and the “% of compound remained” value [3] is reported as “B”.
For `[2H]C([2H])([2H])Oc1ccc(Cl)cc1NC(=O)Nc1cccc2c1ccn2C([2H])([2H])c1ccnc(N)c1` [Example 4, 1-[1-[(2-amino-4-pyridyl)-dideuteriomethyl]indol-4-yl]-3-[5-chloro-2-(trideuteriomethoxy)phenyl]urea], the remaining activity at 0.1 µM [1] was less than 70%, the “% C-Met kinase activity remains” value [2] was “A (the percentage of kinase activity remains is below 70%)” and the “% of compound remained” value [3] was “B”.
In the case of `Cl.[2H]C([2H])([2H])Oc1ccc(Cl)cc1NC(=O)Nc1cccc2c1CCN2C([2H])([2H])c1ccnc2[nH]ccc12` [Example 7, 1-[5-Chloro-2-(trideuteriomethoxy)phenyl]-3-[1-[dideuterio(1H-pyrrolo[2,3-b]pyridin-4-yl)methyl]indolin-4-yl]urea hydrochloride], the remaining activity at 0.1 µM [1] is reported as less than 70%, the “% C-Met kinase activity remains” value [2] is reported as “A (the percentage of kinase activity remains is below 70%)” and the “% of compound remained” value [3] is reported as “A”.
